Source: PubChem BioAssay (NCI)
Where “and” joins values, the source holds several entries; their conditions need not be identical. Equal entries are not always repeated.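 Five compound concentrations were applied to cells in 96-well plates for 48 hours; endpoints were derived by simple linear interpolation of the resulting dose-response curve. GI50 = concentration required for 50% inhibition of growth. At the TGI there is no net growth.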

Legend:
Experiment in all cases: NCI-60 cell line screen, 48 h
BT-549 breast = tested on: BT-549 breast
RXF 393 renal = tested on: RXF 393 renal
DU-145 prostate = tested on: DU-145 prostate
SNB-75 CNS = tested on: SNB-75 CNS
M14 melanoma = tested on: M14 melanoma
MDA-MB-231 breast = tested on: MDA-MB-231 breast

Structure (SMILES): CCCC[P+](CCCC)(CCCC)C(C(=O)OC)C(C(=O)OC)=C1SC(C(=O)OC)=C(C(=O)OC)S1 (stereo not given)
- TGI (BT-549 breast): > 100 µM
- TGI (RXF 393 renal): > 100 µM
- TGI (DU-145 prostate): > 100 µM
- TGI (SNB-75 CNS): > 100 µM
- TGI (M14 melanoma): > 100 µM
- TGI (MDA-MB-231 breast): > 100 µM

Structure (SMILES): CCCCn1c(C)c(C)c2c1NN=C(C#N)S2(=O)=O
- TGI (BT-549 breast): > 100 µM
- TGI (DU-145 prostate): > 100 µM
- TGI (SNB-75 CNS): > 100 µM
- TGI (M14 melanoma): > 100 µM
- TGI (MDA-MB-231 breast): > 100 µM

Structure (SMILES): CC[C@@]1(O)C(=O)OCc2c1cc1n(c2=O)Cc2c-1nc1ccccc1c2C=Nc1ccc(N[C@@H]2c3cc4c(cc3[C@@H](c3cc(OC)c(O)c(OC)c3)[C@H]3C(=O)OC[C@@H]32)OCO4)cc1
- GI50 (RXF 393 renal): 0.127 µM and 0.0526 µM
- TGI (RXF 393 renal): 2.25 µM and 0.546 µM
- TGI (DU-145 prostate): 0.18 µM and 0.028 µM
- GI50 (SNB-75 CNS): 0.0498 µM and < 0.0169 µM
- TGI (M14 melanoma): 0.742 µM and 0.253 µM
- TGI (MDA-MB-231 breast): 18.4 µM and 4.06 µM

Structure (SMILES): COc1ccccc1-c1n[nH]c(-c2ccccc2O)n1
- TGI (BT-549 breast): > 100 µM
- TGI (RXF 393 renal): > 100 µM
- TGI (DU-145 prostate): > 100 µM
- TGI (SNB-75 CNS): > 100 µM
- TGI (M14 melanoma): > 100 µM
- TGI (MDA-MB-231 breast): > 100 µM

Structure (SMILES): CC(=O)N1c2ccccc2C2=NN=C(N(C)C)SC21 (stereo not given)
- TGI (BT-549 breast): 24.2 µM
- TGI (DU-145 prostate): 7.45 µM
- TGI (SNB-75 CNS): 26.4 µM
- TGI (M14 melanoma): 7.97 µM
- TGI (MDA-MB-231 breast): 11 µM

Structure (SMILES): CCOC(=O)NC(Nc1cccc(F)c1)(C(F)(F)F)C(F)(F)F
- TGI (BT-549 breast): > 100 µM
- TGI (RXF 393 renal): > 100 µM
- TGI (DU-145 prostate): > 100 µM
- TGI (SNB-75 CNS): > 100 µM
- TGI (M14 melanoma): > 100 µM
- TGI (MDA-MB-231 breast): > 100 µM

Structure (SMILES): COc1ccc(-c2cc(-c3ccccc3)c3c(n2)-c2ccccc2NC(=O)C3)cc1
- TGI (BT-549 breast): > 100 µM
- TGI (RXF 393 renal): > 100 µM
- TGI (DU-145 prostate): > 100 µM
- TGI (SNB-75 CNS): 37.8 µM
- TGI (M14 melanoma): > 100 µM
- TGI (MDA-MB-231 breast): > 100 µM

Structure (SMILES): O=c1[nH]nc(Cc2ccccc2)n1N=C1CCCCC1
- TGI (BT-549 breast): > 100 µM
- TGI (RXF 393 renal): > 100 µM
- TGI (DU-145 prostate): > 100 µM
- TGI (M14 melanoma): > 100 µM
- TGI (MDA-MB-231 breast): > 100 µM

Structure (SMILES): CCOC(=O)CCN1C(=O)c2ccc(NC(=O)C(=O)O)cc2S1(=O)=O
- TGI (BT-549 breast): > 100 µM
- TGI (DU-145 prostate): > 100 µM
- TGI (SNB-75 CNS): > 100 µM
- TGI (M14 melanoma): > 100 µM
- TGI (MDA-MB-231 breast): > 100 µM

Structure (SMILES): CCOC(=O)NC(OCCN(C)C)(C(F)(F)F)C(F)(F)F
- TGI (BT-549 breast): > 100 µM
- TGI (RXF 393 renal): > 100 µM
- TGI (DU-145 prostate): > 100 µM
- TGI (SNB-75 CNS): > 100 µM
- TGI (M14 melanoma): > 100 µM
- TGI (MDA-MB-231 breast): > 100 µM

Structure (SMILES): CCOC(=O)/C(=C\NC[C@@H](C)O)c1nc2ccccc2[nH]1
- TGI (BT-549 breast): > 100 µM
- TGI (RXF 393 renal): > 100 µM
- TGI (DU-145 prostate): > 100 µM
- TGI (SNB-75 CNS): > 100 µM
- TGI (M14 melanoma): > 100 µM

Structure (SMILES): CCOC(=O)c1nc2cc(F)c(F)cc2nc1NCc1cc(OC)c(OC)c(OC)c1
- TGI (BT-549 breast): > 100 µM
- TGI (RXF 393 renal): > 100 µM
- TGI (DU-145 prostate): > 100 µM
- TGI (SNB-75 CNS): > 100 µM
- TGI (M14 melanoma): > 100 µM

Structure (SMILES): COC(=O)CC[N+]1([O-])CC1
- TGI (RXF 393 renal): > 100 µM
- TGI (DU-145 prostate): > 100 µM
- TGI (SNB-75 CNS): > 100 µM
- TGI (M14 melanoma): > 100 µM
- TGI (MDA-MB-231 breast): > 100 µM

Structure (SMILES): CSC1=C(C)S/C(=C\c2ccc(/C=C3\SC(C)=C(SC)S3)cc2)S1
- TGI (BT-549 breast): > 100 µM
- TGI (RXF 393 renal): 79 µM
- TGI (DU-145 prostate): > 100 µM
- TGI (SNB-75 CNS): > 100 µM
- TGI (M14 melanoma): > 100 µM
- TGI (MDA-MB-231 breast): > 100 µM

Structure (SMILES): CN(O)C(=O)c1ccc(OCc2cccc(Cl)c2)cc1
- TGI (BT-549 breast): > 100 µM
- TGI (RXF 393 renal): > 100 µM
- TGI (DU-145 prostate): 98.2 µM
- TGI (SNB-75 CNS): > 100 µM
- TGI (M14 melanoma): > 50 µM
- TGI (MDA-MB-231 breast): > 100 µM

Structure (SMILES): CC1=NN(c2cccc(Cl)c2)C(=N/c2nc3ccccc3s2)/C1=C\c1ccccc1O
- TGI (RXF 393 renal): > 100 µM
- TGI (DU-145 prostate): > 100 µM
- TGI (SNB-75 CNS): > 100 µM
- TGI (M14 melanoma): > 100 µM
- TGI (MDA-MB-231 breast): 64.4 µM

Structure (SMILES): Clc1ccccc1-c1nn2c(CCCCCCCCc3nnc4sc(-c5ccccc5Cl)nn34)nnc2s1
- TGI (BT-549 breast): > 100 µM
- TGI (RXF 393 renal): > 100 µM
- TGI (DU-145 prostate): > 100 µM
- TGI (SNB-75 CNS): > 100 µM
- TGI (M14 melanoma): > 100 µM
- TGI (MDA-MB-231 breast): > 100 µM

Structure (SMILES): CC(=O)O[C@H]1CC[C@@]2(C)C(=CC[C@H]3[C@@H]4C[C@H](N5CCN(C)CC5)[C@H](OC(C)=O)[C@@]4(C)CC[C@@H]32)C1
- TGI (BT-549 breast): 32.8 µM
- TGI (RXF 393 renal): 40.3 µM
- TGI (DU-145 prostate): > 100 µM
- TGI (SNB-75 CNS): 62.6 µM
- TGI (M14 melanoma): 8.2 µM
- TGI (MDA-MB-231 breast): 34.3 µM

Structure (SMILES): COc1ccc(/C=C/C(=N/NC(=O)N/N=C(/C=C/c2ccc(OC)cc2)C(C)C)C(C)C)cc1
- TGI (BT-549 breast): > 100 µM
- TGI (RXF 393 renal): > 100 µM
- TGI (DU-145 prostate): > 100 µM
- TGI (SNB-75 CNS): > 100 µM
- TGI (M14 melanoma): > 100 µM
- TGI (MDA-MB-231 breast): > 100 µM

Structure (SMILES): CCOc1cc(NC(C)=O)ccc1C(=O)NN1C(=O)C(Cl)C1c1ccc(O)c(OC)c1 (stereo not given)
- TGI (BT-549 breast): 21.9 µM
- TGI (RXF 393 renal): 29.2 µM
- TGI (DU-145 prostate): 29 µM
- TGI (SNB-75 CNS): 24.1 µM
- TGI (M14 melanoma): 28.1 µM
- TGI (MDA-MB-231 breast): 26.9 µM

Structure (SMILES): COc1ccc2c(c1OC)C(Br)CCC(Br)(Br)C2=O (stereo not given)
- TGI (BT-549 breast): 20.3 µM
- TGI (RXF 393 renal): 15.1 µM
- TGI (DU-145 prostate): 24.9 µM
- TGI (M14 melanoma): 18.3 µM
- TGI (MDA-MB-231 breast): 29.9 µM

Structure (SMILES): COc1nc(N)nc2c1n(C)c[n+]2C
- TGI (BT-549 breast): > 100 µM
- TGI (RXF 393 renal): > 100 µM
- TGI (DU-145 prostate): > 100 µM
- TGI (SNB-75 CNS): > 100 µM
- TGI (M14 melanoma): > 100 µM
- TGI (MDA-MB-231 breast): > 100 µM

Structure (SMILES): c1ccc2nc3c(nc2c1)sc1nc2ccccc2n13
- TGI (BT-549 breast): > 100 µM
- TGI (RXF 393 renal): > 100 µM
- TGI (DU-145 prostate): > 100 µM
- TGI (SNB-75 CNS): > 100 µM
- TGI (M14 melanoma): > 100 µM
- TGI (MDA-MB-231 breast): > 100 µM

Structure (SMILES): O=C(c1c(F)c(F)c(F)c(F)c1F)n1c(=O)[nH]c2ccccc21
- TGI (BT-549 breast): 37.5 µM
- TGI (RXF 393 renal): 22 µM
- TGI (DU-145 prostate): 29.6 µM
- TGI (SNB-75 CNS): 30.5 µM
- TGI (M14 melanoma): 22.1 µM
- TGI (MDA-MB-231 breast): 26.8 µM

Structure (SMILES): COc1ccc2c(c1)nc1n2C(c2c(F)cccc2F)SC1 (stereo not given)
- TGI (BT-549 breast): > 100 µM
- TGI (RXF 393 renal): > 100 µM
- TGI (DU-145 prostate): > 100 µM
- TGI (SNB-75 CNS): > 100 µM
- TGI (M14 melanoma): > 100 µM
- TGI (MDA-MB-231 breast): > 100 µM

Structure (SMILES): Nc1c(O)c2c(c(O)c1Cl)C(=O)C=CC2=O
- TGI (BT-549 breast): 3.38 µM
- TGI (RXF 393 renal): 21 µM
- TGI (DU-145 prostate): 5.3 µM
- TGI (SNB-75 CNS): 12.6 µM
- TGI (M14 melanoma): 6.08 µM
- TGI (MDA-MB-231 breast): 19.7 µM

Structure (SMILES): COc1ccc(-c2c(C#N)c(N)n(C3OCC(O)C(O)C3O)c(=S)c2C#N)cc1 (stereo not given)
- TGI (BT-549 breast): > 100 µM
- TGI (RXF 393 renal): > 100 µM
- TGI (DU-145 prostate): > 100 µM
- TGI (SNB-75 CNS): > 100 µM
- TGI (M14 melanoma): > 100 µM
- TGI (MDA-MB-231 breast): > 100 µM

Structure (SMILES): Cc1ccc([N+](=O)[O-])cc1S(=O)(=O)Nc1ccc(C2=NOC(c3ccccc3)C2)cc1 (stereo not given)
- TGI (BT-549 breast): 51.9 µM
- TGI (RXF 393 renal): 9.44 µM
- TGI (DU-145 prostate): 33.9 µM
- TGI (SNB-75 CNS): 70.3 µM
- TGI (M14 melanoma): 18.1 µM
- TGI (MDA-MB-231 breast): 88.3 µM

Structure (SMILES): O=c1oc2ccccc2cc1-c1nc2ccccc2c(=O)[nH]1
- TGI (BT-549 breast): > 100 µM
- TGI (RXF 393 renal): > 100 µM
- TGI (DU-145 prostate): > 100 µM
- TGI (SNB-75 CNS): > 100 µM
- TGI (M14 melanoma): > 100 µM
- TGI (MDA-MB-231 breast): > 100 µM
